Where a SMILES comes first, the peptide text is derived from it. [ ]: non-standard residue; d: D form. The star is where a group is joined. Cbz = O=C(OCc1ccccc1)*
Key:
Mus musculus [1] = species on record: Mus musculus; test: Toxicity toward P-815 Mastocytoma cells after 5 hr was determined as percent of [51Cr]- release from labeled cells as a measure of cell death. at a concentration of 0.208 mM. (expt III); type: functional
Mus musculus [2] = species on record: Mus musculus; test: Toxicity was evaluated for the compound at a concentration of 0.208 mM against […] Mastocytoma.; type: functional
Mus musculus [3] = species on record: Mus musculus; test: Toxicity toward P-815 Mastocytoma cells after 5 hr was determined as percent of [51Cr]- release from labeled cells as a measure of cell death. at a concentration of 0.257 mM. (expt III); type: functional
Mus musculus [4] = species on record: Mus musculus; test: Cytotoxicity was determined against mouse peritoneal macrophages (MPM) and the percent of LDH released after 24 hr was determined as a measure of cell death at a concentration of 0.375 mM (expt I); type: functional
Mus musculus [5] = species on record: Mus musculus; test: Cytotoxicity was determined against mouse peritoneal macrophages (MPM) and the percent of LDH released after 24 hr was determined as a measure of cell death at a concentration of 0.375 mM (expt II); type: functional
Mus musculus [6] = species on record: Mus musculus; test: Cytotoxicity was determined for the compound against mouse peritoneal macrophages (MPM) at a concentration of 0.514 mM.; type: functional
Mus musculus [7] = species on record: Mus musculus; test: Cytotoxicity was determined for the compound against mouse peritoneal macrophages (MPM) at a concentration of 0.541 mM.; type: functional
Mus musculus [8] = species on record: Mus musculus; test: Toxicity was evaluated for the compound at a concentration of 0.257 mM against […] Mastocytoma.; type: functional
Mus musculus [9] = species on record: Mus musculus; test: Toxicity toward P-815 Mastocytoma cells after 5 hr was determined as percent of [51Cr]- release from labeled cells as a measure of cell death. at a concentration of 0.282 mM. (expt III); type: functional
Mus musculus [10] = species on record: Mus musculus; test: Toxicity toward P-815 Mastocytoma cells after 5 hr was determined as percent of [51Cr]- release from labeled cells as a measure of cell death. at a concentration of 0.282 mM. (expt IV); type: functional
Mus musculus [11] = species on record: Mus musculus; test: Appearance of mouse peritoneal macrophages after 3h of treatment with compound at a concentration of 0.375 mM; OK; type: functional, organism-based
Mus musculus [12] = species on record: Mus musculus; test: Toxicity toward P-815 Mastocytoma cells after 5 hr was determined as percent of [51Cr]- release from labeled cells as a measure of cell death. at a concentration of 0.750 mM. (expt III); type: functional
Mus musculus [13] = species on record: Mus musculus; test: Toxicity toward P-815 Mastocytoma cells after 5 hr was determined as percent of [51Cr]- release from labeled cells as a measure of cell death. at a concentration of 0.281 mM. (expt IV); type: functional
Mus musculus [14] = species on record: Mus musculus; test: Cytotoxicity was determined against mouse peritoneal macrophages (MPM) and the percent of LDH released after 24 hr was determined as a measure of cell death at a concentration of 0.561 mM (expt II); type: functional

O=C(CNC(=O)OCc1ccccc1)N[C@@H](Cc1ccccc1)C(=O)N(CCCl)CCCl
Cr release (Mus musculus [1]): 16% | Toxicity (Mus musculus [2]): 100 µg/mL

CCCCCCCCCCCCNC(=O)[C@@H](Cc1ccccc1)NC(=O)CN
Cr release (Mus musculus [3]): 95% | LDH release (Mus musculus [4]): 85% | LDH release (Mus musculus [5]): 78% | Toxicity (Mus musculus [6]): 200 µg/mL | Toxicity (Mus musculus [7]): 210 µg/mL | Toxicity (Mus musculus [8]): 100 µg/mL

NC(=O)[C@H](Cc1ccccc1)NC(=O)CNC(=O)OCc1ccccc1
Cr release (Mus musculus [9]): 17%

NC(=O)[C@@H](Cc1ccccc1)NC(=O)CNC(=O)OCc1ccccc1
Cr release (Mus musculus [10]): 17%

CCCCCCCCCCCCNCC(F)(F)F
Activity (Mus musculus [11]): OK | Cr release (Mus musculus [12]): 15% | LDH release (Mus musculus [4]): 52% | LDH release (Mus musculus [5]): 64%

O=C(CNC(=O)OCc1ccccc1)N[C@H](Cc1ccccc1)C(=O)O (Cbz-Gly-[dF]-OH)
Cr release (Mus musculus [13]): 16% | LDH release (Mus musculus [14]): 17%
